In patent US20210139435A1, “PROSTAGLANDIN ANALOGS AND USES THEREOF” (Lifex Biolabs, Inc., priority 2019, published 2021):

Experiments:
[1] = target: ligand-binding domain (LBD) of Nurr1 (Homo sapiens, UniProt P43354); test: Binding of prostaglandins to Nurr1-LBD (NMR titration)
Excerpt: Cyclopentenone prostaglandin's A1/A2 are dehydrated metabolites of their precursors, the cyclopentanone prostaglandins E1/E2. In PGE1/E2, a hydroxyl group is attached to the C11 atom, which is responsible for the covalent attachment between PGA1 and Nurr1. This is evident from the electron density observed between the PGA1/A2's C11 atom (Rajan, S. et al. Nat Chem Biol 16, 876-886 (2020); U.S. patent application Ser. No. 16/334,550) and Nurr1's Cys566 sulphur, a characteristic feature of PGA1/A2 binding. […] Based on these one could conclude that both PGA1 and PGE1 can be used to design analogs, preferably using PGE1 which is better suited for chemic synthesis and modifications as it lacks the reactive C11 site, concealed by the hydroxyl group (Rajan, S. et al. Nat Chem Biol 16, 876-886 (2020)). […] One such is the misoprostol, which enhanced Nurr1's transcription function. Thus, we chose PGE1 and Misoprostol as the candidate molecules to make modification.

Nurr1 = Nurr1 (Homo sapiens, UniProt P43354); test: Activation of Nurr1 / Nurr1's transcription function by prostaglandins (stated without method); type: cell-based
Sequence of Nurr1 (P43354 whole entry, species assumed): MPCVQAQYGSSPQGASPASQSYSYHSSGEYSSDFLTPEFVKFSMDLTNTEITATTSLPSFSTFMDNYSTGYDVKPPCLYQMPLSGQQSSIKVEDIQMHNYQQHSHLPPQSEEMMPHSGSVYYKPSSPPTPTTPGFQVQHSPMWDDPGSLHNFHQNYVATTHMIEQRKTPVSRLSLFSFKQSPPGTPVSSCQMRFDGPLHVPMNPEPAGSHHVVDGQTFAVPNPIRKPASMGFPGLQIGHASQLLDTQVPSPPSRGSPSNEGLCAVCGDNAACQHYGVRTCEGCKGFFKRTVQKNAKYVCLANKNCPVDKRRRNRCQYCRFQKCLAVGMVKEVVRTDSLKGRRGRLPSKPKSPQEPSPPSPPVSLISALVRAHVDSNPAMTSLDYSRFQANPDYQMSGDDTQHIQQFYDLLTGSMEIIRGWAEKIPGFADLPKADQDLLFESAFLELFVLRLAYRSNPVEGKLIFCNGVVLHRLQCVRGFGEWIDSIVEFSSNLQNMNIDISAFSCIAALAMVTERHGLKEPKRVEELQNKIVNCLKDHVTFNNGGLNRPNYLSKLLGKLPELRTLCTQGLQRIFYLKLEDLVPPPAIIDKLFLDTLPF

[2] = tested on: 6-OHDA Parkinson's disease model; test: 6-OHDA Parkinson's disease model, apomorphine induced rotational behavior, intranasal administration; type: in vivo, C57BL/6 mice; details: apomorphine (0.5 mg/kg) induced rotation; daily intranasal 0.2 mg/ml; 6-OHDA mice
Description: Mice were randomly divided into […]: Control (n=4); 6-OHDA (6-hydroxydopamine)+(n=7), 6-OHDA+PGE1 (n=8); 6-OHDA+BSC15 (the compound of the present invention) (n=8); 6-OHDA+BSC19 (the compound of the present invention) (n=7).
Week 9-10 C57BL/6 mice were intranasally administered daily with 0.2 mg/ml of compounds to be tested for 3 days before 6-OHDA injection. Stereotaxic surgery was performed by injecting 7.5 μg of 6-OHDA into the left striatum (AP: +0.5 mm, ML: −2.0 mm, VD: −3.5 mm) of the mouse. Compounds to be tested, i.e., PGE1, BSC15 and BSC19 were prepared by double emulsion solvent evaporation of 1:4 molar ratio with 2-hydroxypropyl-β-cyclodextrin. After surgical recovery, the daily intranasal administration continued with a weekly assessment of apomorphine (0.5 mg/kg) induced rotational behavior. Animal care and handling were performed according to the protocol approved by Nanyang Technological University's Institutional Animal Care and Use Committee.

mouse Nurr1 full-length = target: T1, mouse Nurr1 full-length (Mus musculus, UniProt Q06219); test: Luciferase reporter gene assay for Nurr1 transcriptional activity in SK-N-BE2C cells; type: cell-based; details: relative activity over control (luminescence value; 1.0)
T1 construct: pcDNA3.1 Myc/His mouse Nurr1 full-length construct; expressed in transfected cells; host or cells: SK-N-BE2C
T1 sequence (Q06219 whole entry): as the sequence (P43354 whole entry, species assumed) above, with T131S, G134S, E354D counted along it
Method in brief: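 SK-N-BE2C cells co-transfected with mouse full-length Nurr1, firefly reporter carrying response element and Renilla control (8:1:1), then exposed to compound doses for 24 h at 37 °C. Dual-luciferase readout; firefly RLU normalized to Renilla after background subtraction, then to DMSO-treated wells.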

Sequence of ligand-binding domain (LBD) of Nurr1 (P43354 360-595 limits assumed): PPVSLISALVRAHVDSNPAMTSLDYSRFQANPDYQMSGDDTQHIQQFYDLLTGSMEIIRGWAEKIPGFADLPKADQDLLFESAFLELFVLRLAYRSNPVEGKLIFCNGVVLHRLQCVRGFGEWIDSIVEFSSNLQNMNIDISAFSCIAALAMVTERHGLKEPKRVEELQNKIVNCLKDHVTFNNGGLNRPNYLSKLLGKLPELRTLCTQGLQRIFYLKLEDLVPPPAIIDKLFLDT

| Fold activity (1 uM) (mouse Nurr1 full-length) | SMILES | further results |
| --- | --- | --- |
| A (above 2.0 (high activity)) | CCCCC[C@H](O)/C=C/[C@H]1[C@H](O)CC(=O)[C@H]1CCCCCCC(=O)O [Compound 50, 8-iso Prostaglandin E1] | – |
| A (above 2.0 (high activity)) | CCCCC[C@H](O)/C=C/[C@H]1[C@H](O)CC(=O)[C@@H]1CCCCCCC(=O)Nc1ccc2nccnc2c1 [Compound 7, 7-((1R,2R,3R)-3-hydroxy-2-((S,E)-3-hydroxyoct-1-enyl)-5-oxocyclopentyl)-N-(quinoxalin-6-yl)heptanamide] | – |
| B (1.1~2.0 (moderate)) | O=C(O)CCCCCC[C@H]1C(=O)C[C@@H](O)[C@@H]1/C=C/[C@@H](O)Cc1ccccc1 [Compound 59, 16-phenyl tetranor Prostaglandin E1] | – |

More lines, now with the values behind:

| SMILES | Fold activity (1 uM) (mouse Nurr1 full-length) | further results |
| --- | --- | --- |
| CCCCC[C@H](O)/C=C/[C@H]1[C@H](O)CC(=O)[C@@H]1C/C=C\CCCC(=O)O [PGE2, Prostaglandin E2] | – | direct binding to the ligand-binding domain (LBD) of Nurr1 [1]: directly bind; activation of Nurr1 (Nurr1): activate |
| CCCCC[C@H](O)/C=C/[C@H]1C=CC(=O)[C@@H]1C/C=C\CCCC(=O)O [PGA2] | – | direct binding to the ligand-binding domain (LBD) of Nurr1 [1]: directly bind; activation of Nurr1 (Nurr1): activate |
| CCCCC[C@H](O)/C=C/[C@H]1[C@H](O)CC(=O)[C@@H]1CCCCCCC(=O)O [PGE1, Prostaglandin E1] | – | direct binding to the ligand-binding domain (LBD) of Nurr1 [1]: directly bind; binding site on Nurr1-LBD by NMR titration [1]: interact at same binding site on Nurr1-LBD; rotation number [2]: significant reduction; activation of Nurr1 (Nurr1): activate |
| CCCCC[C@H](O)/C=C/[C@H]1C=CC(=O)[C@@H]1CCCCCCC(=O)O [PGA1] | – | direct binding to the ligand-binding domain (LBD) of Nurr1 [1]: directly bind; binding site on Nurr1-LBD by NMR titration [1]: interact at same binding site on Nurr1-LBD; activation of Nurr1 (Nurr1): activate |
| CCCCC[C@H](O)/C=C/[C@H]1[C@H](O)CC(=O)[C@@H]1CCCCCCC(=O)Oc1ccc(NC(=O)c2ccc(F)c(F)c2)cc1 [Compound 12, 4-(3,4-difluorobenzamido)phenyl 7-((1R,2R,3R)-3-hydroxy-2-((S,E)-3-hydroxyoct-1-enyl)-5-oxocyclopentyl)heptanoate] | A (above 2.0 (high activity)) | – |
| CCCCC[C@](C)(O)/C=C/[C@H]1[C@H](O)CC(=O)[C@@H]1C/C=C\CCCC(=O)O [Compound 61, 15(S)-15-methyl Prostaglandin E2] | A (above 2.0 (high activity)) | – |
| O=C(CCC/C=C\C[C@@H]1[C@@H](CC[C@@H](O)CCc2ccccc2)[C@H](O)C[C@@H]1O)OCCCCO[N+](=O)[O-] [Compound 95, Latanoprostene bunod] | C (below 1.0 (low activity)) | – |
| CCCCC[C@H](O)/C=C/[C@H]1[C@H](O)CC(=O)[C@@H]1CCCCCCC(=O)Oc1cc(OC)c(OC)c(OC)c1 [Compound 14, 3,4,5-trimethoxyphenyl 7-((1R,2R,3R)-3-hydroxy-2-((S,E)-3-hydroxyoct-1-enyl)-5-oxocyclopentyl)heptanoate] | A (above 2.0 (high activity)) | – |
| CCCCC(C)(O)C/C=C/[C@H]1[C@@H](O)CC(=O)[C@@H]1CCCCCCC(=O)OC (stereo partly drawn) [Compound 81, 11β-Misoprostol] | C (below 1.0 (low activity)) | – |
| CCCCCC(=O)/C=C/[C@H]1[C@H](O)CC(=O)[C@@H]1C/C=C\CCCC(=O)O [Compound 45, 15-keto Prostaglandin E2] | B (1.1~2.0 (moderate)) | – |
| CCCCC(C)(O)C/C=C/[C@H]1[C@H](O)CC(=O)[C@@H]1CCCCCCC(=O)OC (stereo partly drawn) [misoprostol, Misoprostol] | – | Nurr1's transcription function (Nurr1): enhanced |
| CCCCC(C)(C)[C@H](O)/C=C/[C@H]1[C@H](O)CC(=O)[C@@H]1C/C=C\CCCC(=O)O [Compound 69, 16,16-dimethyl Prostaglandin E2] | A (above 2.0 (high activity)) | – |
| CCCCC[C@@H](O)/C=C/[C@H]1C(=O)C[C@H](O)[C@@H]1C/C=C\CCCC(=O)O [Compound 16, 15(R)-Prostaglandin D2] | A (above 2.0 (high activity)) | – |
| CCCCC[C@H](O)/C=C/[C@H]1C(=O)C[C@H](O)[C@@H]1C/C=C\CCCC(=O)NC(CO)CO [Compound 32, Prostaglandin D2 serinol amide] | C (below 1.0 (low activity)) | – |
